# Data from patent US20070117864A1, “Composition for preventing and treating hepatoma” (Tokyo University of Agr. & Tech. TLO Co., Ltd., priority 2003, published 2007).
# Marks after values point to notes of the source that are not given here.
# Tests used:
# AH109A cells [1] = assay: proliferative activity of hepatoma cells by [3H]thymidine incorporation; format: cell-based, rat
# Description: The proliferative activity of the AH109A cells was evaluated by measuring the incorporation of [^3H]thymidine (20 Ci/mmol, New England Nuclear, Boston, USA) into acid-insoluble fraction, namely, DNA [Yagasaki K., Tanabe T., Ishihara K., and Funabiki R., (1992) Modulation of the proliferation of cultured hepatoma cells by urea cycle-related amino acids. In: Murakami, H., Shirahata S., and Tachibanana H., (ed.) Animal Cell Technology: Basic and Applied Aspects. Vol. 4 (pp. 257-263). Kluwer Academic Publisher, Dordrecht/Boston/London]. […]
# The plate was washed twice with 400 μl of 10% TCA; the wash solution was then recovered in Maruemu tubes, and was again subjected to centrifugally separation for 5 minutes at 3000 rpm (1500×g), 4° C., and then solubilized in 0.2N NaOH in 0.1% SDS. was added to the 48-well plate and the cells remaining in the Maruemu tubes at the respective rates of 150 μl and 50 μl, and these were allowed to stand for 30 minutes inside an incubator at 37° C., to dissolve the cells completely. […] 5 ml of an NT scintillator (700 ml of toluene, 300 ml of nonion, 4 g of DPO) was added, and 150 μl of 1N HCl was further added thereto, and it was confirmed that the liquid of the preparation thoroughly shaken had become transparent; then, the radioactivity of the preparation was measured with a liquid scintillation spectrophotometer (LS6500; Beckman, Fullerton, Calif., USA). […]
# AH109A cells [2] = assay: cell cycle analysis of hepatoma cells by PI staining and flow cytometry; format: cell-based, rat
# Description: The effects of 6.25 μM and 12.5 μM ENL on the cell cycle of AH109A cells were analyzed. The AH109A cells were inoculated into a 6-well plate (NUNC) at the density of 2.5×10^5 cells per well, and the cells were cultured for 0, 24 and 48 hours at 37° C. in a CO2 incubator. The AH109A cells cultured under the respective treatment conditions were recovered in 2-ml sampling tubes (Nippon Genetex, Tokyo); these cells were centrifuged for 5 minutes at 1000 rpm (190×g), 4° C., and then washed twice with PBS (−). Subsequently, 300 μl of a PI solution (1 mg propidium iodide (SIGMA)/20 ml 0.1% Triton X-100, 0.1% sodium citrate (Wako Pure Chemical Industries)) was added, and the preparation was dyed by allowing the preparation to kept quietly on ice for 30 minutes with the light blocked. The cell cycle was analyzed with a flow cytometer (EPICS ELITE ESP; Beckman-Coulter, Hialeah, Fla., USA).
# [3] = serum lipid levels in hepatoma-bearing rats; format: in vivo, rat; settings: for Serum lipid level (VLDL + LDL)-Cholesterol (B): difference between T-Ch and HDL-Ch; for Serum lipid level (VLDL + LDL)-Cholesterol (B) / AI (B/A), atherogenic index / Serum lipid level HDL-Cholesterol (A) / Serum lipid level Total Cholesterol / Serum lipid level Triglyceride: mean ± SEM of 11 rats
# Description: Male Donryu rats of four weeks old were purchased from NRC Haruna, Gumma, Japan, and were preliminarily fed for 6 days in quintuple cages in a room with a controlled environment with light period of 8:00 to 20:00, room temperature of 22±1° C., and relative humidity of 60±5%. For the first 3 days, the animals were fed ad libitum with a stock pellet diet (CE-2; CLEA Japan, Tokyo), and for the next 3 days, they were fed a basal diet containing 20% milk casein (20C) (Table 1) ad libitum together with tap water in a glass container. Following the completion of this preparatory raising, the rats were divided into three groups (11 animals per group) with equal average body weights of the respective groups were equal, and 1.0×10^7 of AH109A cells suspended in PBS (−) were transplanted in the back of all the rats. From the time immediately after transplantation, in the respective experimental groups, the animals were fed the experimental diets shown in Table 2. During the experimental period, the body weight, food intake and solid tumor size (sum of length, width and height) were measured everyday. On the day that the animals were killed, animals were deprived of experimental diets at 9:00, but freely given water until they were killed 4 hours later. Blood was collected from carotid, and the liver and solid tumors were excised. The collected blood was allowed to stand for approximately 2 hours at room temperature, and then centrifuged for 10 minutes at 3000 rpm (1750×g), 4° C., to obtain serum. This blood serum was frozen and stored at −20° C. The livers and solid tumors were washed with physiological saline, blotted on filter paper, and weighed. Furthermore, feces from the 19th to 21st days after transplantation were collected, and these feces were frozen and stored at −20° C. for the measurement of the amounts of steroids excreted from the body. Serum cholesterol (Ch) and triglyceride (TG) concentration was measured. Total cholesterol (T-Ch) level, the high-density-lipoprotein (HDL-Ch) level (which is the supernatant fraction obtained by precipitating very-low-density-lipoprotein+low-density-lipoprotein ((VLDL+LDL)-Ch fractions) by the precipitation method using phosphotungstic acid were measured. The (VLDL+LDL)-Ch level was taken as the difference between the T-Ch and the HDL-Ch levels. Atherogenic index (AI: (VLDL+LDL)-Ch/HDL-Ch ratio) was calculated as an index of atherogenesis.
# [4] = ENL treatment for 24 hours, versus 0 μM control
# [5] = ENL diet groups versus control diet group
smiles,measurement,setting,value
"O=C1OCC(Cc2cccc(O)c2)C1Cc1cccc(O)c1 (stereo not drawn) [Enterolactone, enterolactone]",proliferation of AH109A cells,"AH109A cells [1]; ENL 50 μM, in vitro",almost completely suppressed
same,"inhibitory effect on proliferation, AH109A cells compared with normal M-cells",AH109A cells [1]; in vitro comparison,stronger inhibitory effect against AH109A cells than normal M-cells
same,effect on the cell cycle,"AH109A cells [2]; ENL treatment for 0 hours, various concentrations",no effect
same,proportion of the G1 phase,AH109A cells [2]; [4],increase
same,proportion of the S phase,AH109A cells [2]; [4],decrease
same,(VLDL+LDL)-Ch in the blood serum,[3]; [5],decreased significantly in a dose-dependent manner
same,"AI value, ratio of (VLDL+LDL)-Ch to HDL-Ch",[3]; [5],tendency to decrease
same,HDL-Ch in the blood serum,"[3]; ENL diet groups versus control diet group, not significant",tendency increase
same,Serum lipid level (VLDL + LDL)-Cholesterol (B),[3]; diet 10 ppm,0.68 ± 0.12^b mmol/L
same,"AI (B/A), atherogenic index",[3]; diet 10 ppm,0.48 ± 0.09
same,Serum lipid level HDL-Cholesterol (A),[3]; diet 10 ppm,1.45 ± 0.07 mmol/L
same,Serum lipid level Total Cholesterol,[3]; diet 10 ppm,2.13 ± 0.14 mmol/L
same,Serum lipid level Triglyceride,[3]; diet 10 ppm,0.98 ± 0.06 mmol/L
same,Serum lipid level (VLDL + LDL)-Cholesterol (B),[3]; diet 100 ppm,0.67 ± 0.08^b mmol/L
same,"AI (B/A), atherogenic index",[3]; diet 100 ppm,0.41 ± 0.05
same,Serum lipid level HDL-Cholesterol (A),[3]; diet 100 ppm,1.63 ± 0.06 mmol/L
same,Serum lipid level Total Cholesterol,[3]; diet 100 ppm,2.30 ± 0.12 mmol/L
same,Serum lipid level Triglyceride,[3]; diet 100 ppm,0.93 ± 0.06 mmol/L
